Measurements taken from ChEMBL document CHEMBL3045062, “Potent in vitro and in vivo antitubercular activity of certain newly synthesized indophenazine 1,3,5-trisubstituted pyrazoline derivatives bearing benzofuran” (Med Chem Res, 2011).
In brackets after ≈: the same amount, converted by molar mass.

Tested on: Mycobacterium tuberculosis
Experiment: Antitubercular activity against Isoniazid,rifampicin,gatifloxacin-resistant Mycobacterium tuberculosis after 60 days
Assay type: functional

Row | Compound | MIC50 | MIC90
1 | O=C(Cn1c2ccccc2c2nc3ccccc3nc21)N1N=C(c2cc3cc(O)ccc3o2)CC1c1ccccc1O (stereo not given) | 10.3 µg/mL (≈ 18.7 µM) | 12.6 µg/mL (≈ 22.7 µM)
2 | COc1ccccc1C1CC(c2cc3cc(O)ccc3o2)=NN1C(=O)Cn1c2ccccc2c2nc3ccccc3nc21 (stereo not given) | 10.7 µg/mL (≈ 18.8 µM) | 13.6 µg/mL (≈ 24 µM)
3 | CN(C)c1ccc(C2CC(c3cc4cc(O)ccc4o3)=NN2C(=O)Cn2c3ccccc3c3nc4ccccc4nc32)cc1 (stereo not given) | 5 µg/mL (≈ 8.61 µM) | 8.98 µg/mL (≈ 15.5 µM)
4 | CC(=O)c1ccccc1C1CC(c2cc3cc(O)ccc3o2)=NN1C(=O)Cn1c2ccccc2c2nc3ccccc3nc21 (stereo not given) | 9.56 µg/mL (≈ 16.5 µM) | 7.45 µg/mL (≈ 12.9 µM)
5 | O=C(Cn1c2ccccc2c2nc3ccccc3nc21)N1N=C(c2cc3cc(O)ccc3o2)CC1c1cccc([N+](=O)[O-])c1 (stereo not given) | 1.2 µg/mL (≈ 2.06 µM) | 2 µg/mL (≈ 3.43 µM)
6 | COc1ccc(C2CC(c3cc4cc(O)ccc4o3)=NN2C(=O)Cn2c3ccccc3c3nc4ccccc4nc32)c(O)c1 (stereo not given) | 7.8 µg/mL (≈ 13.4 µM) | 13.1 µg/mL (≈ 22.4 µM)
7 | O=C(Cn1c2ccccc2c2nc3ccccc3nc21)N1N=C(c2cc3cc(O)ccc3o2)CC1c1ccc(O)cc1 (stereo not given) | 9.86 µg/mL (≈ 17.8 µM) | 11.2 µg/mL (≈ 20.3 µM)
8 | O=C(Cn1c2ccccc2c2nc3ccccc3nc21)N1N=C(c2cc3cc(O)ccc3o2)CC1c1ccc(Cl)cc1 (stereo not given) | 5.23 µg/mL (≈ 9.14 µM) | 8.66 µg/mL (≈ 15.1 µM)
9 | O=C(Cn1c2ccccc2c2nc3ccccc3nc21)N1N=C(c2cc3cc(O)ccc3o2)CC1c1ccccc1Cl (stereo not given) | 4.68 µg/mL (≈ 8.18 µM) | 8.61 µg/mL (≈ 15.1 µM)
10 | O=C(Cn1c2ccccc2c2nc3ccccc3nc21)N1N=C(c2cc3cc(O)ccc3o2)CC1c1ccccc1[N+](=O)[O-] (stereo not given) | 3.24 µg/mL (≈ 5.56 µM) | 7.2 µg/mL (≈ 12.4 µM)
11 | COc1ccc(C2CC(c3cc4cc(O)ccc4o3)=NN2C(=O)Cn2c3ccccc3c3nc4ccccc4nc32)cc1 (stereo not given) | 11.5 µg/mL (≈ 20.3 µM) | 15.4 µg/mL (≈ 27.1 µM)
12 | O=C(Cn1c2ccccc2c2nc3ccccc3nc21)N1N=C(c2cc3cc(O)ccc3o2)CC1c1ccco1 (stereo not given) | 6.4 µg/mL (≈ 12.1 µM) | 9.78 µg/mL (≈ 18.5 µM)
13 | O=C(Cn1c2ccccc2c2nc3ccccc3nc21)N1N=C(c2cc3cc(O)ccc3o2)CC1/C=C/c1ccccc1 (stereo not given) | 5.6 µg/mL (≈ 9.94 µM) | 11.3 µg/mL (≈ 20.1 µM)
14 | COc1c(N2CCNC(C)C2)c(F)cc2c(=O)c(C(=O)O)cn(C3CC3)c12 (stereo not given) [GATIFLOXACIN] | 14.7 µg/mL (≈ 39.2 µM) | 28.5 µg/mL (≈ 75.8 µM)
15 | CO[C@H]1/C=C/O[C@@]2(C)Oc3c(C)c(O)c4c(O)c(c(/C=N/N5CCN(C)CC5)c(O)c4c3C2=O)NC(=O)/C(C)=C\C=C\[C@H](C)[C@H](O)[C@@H](C)[C@@H](O)[C@@H](C)[C@H](OC(C)=O)[C@@H]1C [RIFAMPIN] | 4.21 µg/mL (≈ 5.12 µM) | 7.37 µg/mL (≈ 8.96 µM)
